Results as given in patent US10364263B2, “Cyclic phosphates and cyclic phosphoramidates for the treatment of neurologic disorders” (Retrophin, Inc., priority 2015, dated 2019).
Where two headings read alike, the source gives them in different places.

Experiments:
Format in all cases: in vitro ADME
[1] = Stability in mouse hepatocytes
[2] = Stability in human hepatocytes; details: for half-life at 5 µM: t1/2, Human Hepatocytes; for half-life: 5 μM, 1 million cells/ml, 37° C., human hepatocytes
[3] = Permeability in porcine brain endothelial cell blood-brain barrier model; details: pig (endothelial cells), co-cultured with rat astrocytes, pH 7.4, PBECs/As blood-brain barrier model, luminal to basal
In short: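 Co-culture of primary porcine brain endothelial cells on Transwell inserts over primary rat astrocytes, with TEER >500 Ω/cm^2 and FITC-dextran integrity control. Compound added apically in HBSS/20 mM Hepes pH 7.4/0.1% BSA and basal amount measured usually after 60 min, by LC-MS/MS, fluorescence or scintillation. Papp in cm/s, corrected for cell-free filter.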

[4] = Stability in mouse plasma
In short: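 Test compound at 3 μM (0.1% DMSO) was incubated in mouse or human plasma at 37 °C and sampled in duplicate at 0, 10, 20, 30, 40 and 60 min. Reactions were stopped with acetonitrile/formic acid containing internal standard. Remaining parent was measured by UPLC-MS/MS without a calibration curve.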

[5] = t1/2, Mouse Hepatocytes, Diastereoisomer A
[6] = t1/2, Mouse Hepatocytes, Diastereoisomer B
[7] = Diastereoisomer A, read-out: Papp Diastereoisomer A
[8] = Diastereoisomer B, read-out: Papp Diastereoisomer B
[9] = Diastereoisomer A (upfield shift in 31P NMR), 5 μM, 1 million cells/ml, 37° C., mouse hepatocytes, read-out: t1/2, Mouse Hepatocytes, Diastereoisomer A (converted)
[10] = Diastereoisomer B, 5 μM, 1 million cells/ml, 37° C., mouse hepatocytes, read-out: t1/2, Mouse Hepatocytes, Diastereoisomer B (converted)
[11] = Diastereoisomer A (upfield shift in 31P NMR), read-out: t1/2, Human Hepatocytes, Diastereoisomer A (converted)
[12] = Diastereoisomer B, read-out: t1/2, Human Hepatocytes, Diastereoisomer B (converted)
[13] = Diastereoisomer A (upfield shift in 31P NMR), 3 μM, 37° C., mouse plasma, read-out: t1/2, Mouse Plasma, Diastereoisomer A
[14] = Diastereoisomer B, 3 μM, 37° C., mouse plasma

| SMILES | half-life at 5 µM [1, 5] [min] | half-life at 5 µM [1, 6] [min] | half-life at 5 µM ([2]; Diastereoisomer A) [min] | half-life at 5 µM ([2]; Diastereoisomer B) [min] | Papp A→B at 60 min [3, 7] [nm/s] | Papp A→B at 60 min [3, 8] [nm/s] | half-life at 3 µM ([4]; mouse, plasma) [min] | t1/2, Mouse Plasma, Diastereoisomer B ([4]; mouse, plasma, 3 µM) [min] | half-life at 5 µM [1, 9] [min] | half-life at 5 µM [1, 10] [min] | half-life [2, 11] [min] | half-life [2, 12] [min] | half-life at 3 µM [4, 13] [min] | t1/2, Mouse Plasma, Diastereoisomer B [4, 14] [min] |
| --- | --- | --- | --- | --- | --- | --- | --- | --- | --- | --- | --- | --- | --- | --- |
| COC(=O)CCNC(=O)[C@@H]1OP(=O)(OCOC(=O)OC(C)C)OCC1(C)C (stereo partly drawn) [Compound No. 69, Methyl 3-((4R)-2-(((isopropoxycarbonyl)oxy)methoxy)-5,5-dimethyl-2-oxido-1,3,2-dioxaphosphinane-4-carboxamido)propanoate] | < 15 | < 15 | < 15 | < 15 | 228 | 299 | < 9.6 | <9.6 |  |  |  |  |  |  |
| CCc1cc(C(=O)OCOP2(=O)OCC(C)(C)[C@H](C(=O)NCCC(=O)OC)O2)n(C)n1 (stereo partly drawn) [Compound No. 84, (((4R)-4-((3-methoxy-3-oxopropyl)carbamoyl)-5,5-dimethyl-2-oxido-1,3,2-dioxaphosphinan-2-yl)oxy)methyl 3-ethyl-1-methyl-1H-pyrazole-5-carboxylate] | < 15 | < 15 | < 15 | < 15 | 101 | 145 | < 9.6 | <9.6 |  |  |  |  |  |  |
| CC(C)(C)C(=O)OCO[P@@]1(=O)OCC(C)(C)[C@H](C(=O)NCCC(=O)O)O1 [Compound No. 91, 3-((2S,4R)-5,5-dimethyl-2-oxido-2-((pivaloyloxy)methoxy)-1,3,2-dioxaphosphinane-4-carboxamido)propanoic acid] | 18 |  | 67.2 |  | 4.5 |  | 30.6 |  |  |  |  |  |  |  |
| COC(=O)CCNC(=O)[C@@H]1OP(=O)(N[C@@H](C)C(=O)OCc2cc(C)cc(C)c2)OCC1(C)C (stereo partly drawn) [compound 3, (2S)-3,5-dimethylbenzyl 2-(((4R)-4-((3-methoxy-3-oxopropyl)carbamoyl)-5,5-dimethyl-2-oxido-1,3,2-dioxaphosphinan-2-yl)amino)propanoate] | < 15 | < 15 | < 15 | < 15 | 99.9 | 84.7 | < 9.6 | <9.6 |  |  |  |  |  |  |
| COC(=O)CCNC(=O)[C@@H]1OP(=O)(N[C@@H](C)C(=O)OC)OCC1(C)C (stereo partly drawn) [compound 5, methyl 3-((4R)-2-(((S)-1-methoxy-1-oxopropan-2-yl)amino)-5,5-dimethyl-2-oxido-1,3,2-dioxaphosphinane-4-carboxamido)propanoate] |  |  |  |  | 62.7 | 50.6 |  |  | 22.8 | 18 | 159 | 60 | < 9.6 | <9.6 |
| COC(=O)CCNC(=O)[C@@H]1OP(=O)(N[C@H](C)C(=O)OC)OCC1(C)C (stereo partly drawn) [compound 16, methyl 3-((4R)-2-(((R)-1-methoxy-1-oxopropan-2-yl)amino)-5,5-dimethyl-2-oxido-1,3,2-dioxaphosphinane-4-carboxamido)propanoate] |  |  |  |  | 33.3 | 43.5 |  |  | 43.2 | 15.6 | > 240 | 80.4 | < 9.6 | <9.6 |
| COC(=O)[C@H](C)NP1(=O)OCC(C)(C)[C@H](C(=O)NCCC(=O)OCc2ccncc2)O1 (stereo partly drawn) [compound 20, (2S)-methyl 2-(((4R)-5,5-dimethyl-2-oxido-4-((3-oxo-3-(pyridin-4-ylmethoxy)propyl)carbamoyl)-1,3,2-dioxaphosphinan-2-yl)amino)propanoate] | < 15 | < 15 | 142 | 65.4 | 47.9 | 33.8 | < 9.6 | <9.6 |  |  |  |  |  |  |
| COC(=O)CCNC(=O)[C@@H]1OP(=O)(N[C@@H](C)C(=O)OCc2cccnc2)OCC1(C)C (stereo partly drawn) [compound 24, methyl 3-((4R)-5,5-dimethyl-2-oxido-2-(((S)-1-oxo-1-(pyridin-3-ylmethoxy)propan-2-yl)amino)-1,3,2-dioxaphosphinane-4-carboxamido)propanoate] | < 15 | < 15 | > 240 | 191 | 5.4 | 6 | < 9.6 | <9.6 |  |  |  |  |  |  |
| COC(=O)CCNC(=O)[C@@H]1OP(=O)(NCCN2CCCC2)OCC1(C)C (stereo partly drawn) [compound 109, methyl 3-((4R)-5,5-dimethyl-2-oxido-2-((2-(pyrrolidin-1-yl)ethyl)amino)-1,3,2-dioxaphosphinane-4-carboxamido)propanoate] |  |  |  |  | 52.6 |  |  |  | 203 |  | > 240 |  | < 9.6 |  |
| COC(=O)CCNC(=O)[C@@H]1OP(=O)(NCCC(=O)OCc2ccccc2)OCC1(C)C (stereo partly drawn) [compound 117, benzyl 3-(((4R)-4-((3-methoxy-3-oxopropyl)carbamoyl)-5,5-dimethyl-2-oxido-1,3,2-dioxaphosphinan-2-yl)amino)propanoate] | < 15 | < 15 | 18.6 | < 15 | 19.5 | 29 | < 9.6 | <9.6 |  |  |  |  |  |  |
